“And” between values parts separate entries of the source, which are not always exact repeats. Equal entries are not always repeated. Where two headings read alike, the source gives them in different places.
Experiments:
Cryptococcus spores = experiment: Quantitative germination assay (QGA), automated microscopy of spore germination; type: cell-based, Cryptococcus neoformans serotype D (deneoformans); details: for germination inhibition phenotype (chemical phenotype) in QGA: at phenotypic concentration
Procedure: In this automated microscopy-based assay, germination progression of spores is monitored as a function of changes in cell morphology over time (spores are small and oval; yeast are large and circular). Individual spores in a population (∼1 × 10^4 per sample) are measured to determine size (area) and shape (aspect ratio) from the onset of germination, and the data are collected for each cell over the time of germination (Fig. 1A).
Germination assays were modified from those described by Barkal et al. to introduce automation, increase throughput, and refine assay consistency ([12]). Briefly, 384-well plates (Thermo Scientific 142762) were loaded with 10^5 spores per well, and at 0 h, synthetic medium plus 2% dextrose (SD medium) containing the compounds of interest was added to the sample (final volume of 40 μl). All compounds were tested initially at 80 μM; however, concentrations were changed on a case-by-case basis for subsequent experiments. All assays and controls were performed with a final concentration of 0.8% DMSO (the compound solvent) unless specified otherwise. Spores were germinated at 30°C in a humidified chamber, and the same ∼5 × 10^3 cells were monitored every 2 h for 16 h. Imaging was performed on a Ti2 Nikon microscope, and each condition was visualized in a minimum of two individual wells with three fields of view acquired from each well. All images were analyzed as described previously based on cell shape and size using ImageJ. The population ratios of spores, intermediates, and yeast were determined. Error bars in plots are based on the variation among all fields of view acquired. Level of germination was determined by quantifying the decrease in the proportion of spores in a population, and rates were quantified by determining the change in this proportion over time. For all two-dimensional histograms, the x axis represents area from 0 μm^2 to 25 μm^2, and the y axis represents the aspect ratio from 0.4 to 1.
Cycloheximide (0.078 μM to 80 μM) (Dot Scientific, Inc. DSC81040-1), G418 (1.6 mM) (Fisher Scientific AAJ6267106), and puromycin (20 mM) (Dot Scientific, Inc. DSP33020-0.025) were tested with no DMSO (all were water soluble), whereas anisomycin (62.5 μM) (Sigma-Aldrich A9789-5MG) was tested in 2.5% DMSO.
Furcarbanil (80 μM) (Sigma-Aldrich T313122), rotenone (10 μM) (Fisher Scientific 501687383), and antimycin A (2.5 μM) (Santa Cruz Biotechnology, Inc. sc-202467A) were all tested in 0.8% DMSO, and TTFA (200 μM) (Sigma-Aldrich 88300-5G) was tested in 3% DMSO.

[1] = test system: Cryptococcus yeast (CHY3833 and CHY3836); experiment: Yeast replication secondary screen (OD600); type: cell-based, Cryptococcus neoformans serotype D (deneoformans); details: 10 μM, 12 h at 30°C
Procedure: (ii) Yeast replication. CHY3833 and CHY3836 were each grown in YPD liquid overnight at 30°C to saturation and then resuspended in 0.5× YPD at an OD600 of 0.005. Strains were aliquoted into 384-well plates with inhibitors and grown for 12 h at 30°C at […] before OD600 readings were taken. Compounds that caused a >10% decrease in growth were considered yeast growth inhibitors.

[2] = test system: normal human dermal fibroblasts (NHDF) cells; experiment: Fibroblast cytotoxicity (CellTiter-Glo); type: cell-based; details: 10 µM
In short: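 Normal human dermal fibroblasts, 1 × 10^3 per well, exposed to compounds at 10 μM for 72 h at 37°C. Viability read as ATP-dependent CellTiter-Glo luminescence. Dose-response runs titrated compounds from 80 μM to 0.5 μM in duplicate.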

## Nc1nc(-c2ccc(Oc3ccccc3)cc2)cs1 [PubChem CID 780598]
Cryptococcus spores
  phenotypic concentration (concentration showing the germination phenotype in QGA): 20 µM
  germination inhibition phenotype (chemical phenotype) in QGA: bimodal

## COc1ccc(C[C@H](N)C(=O)N[C@H]2[C@@H](O)[C@H](n3cnc4c(N(C)C)ncnc43)O[C@@H]2CO)cc1 [puromycin, reference compound]
Cryptococcus spores
  germination inhibition phenotype (chemical phenotype) in QGA: slow-down

## O=C(CCSc1ccccc1)N1CCC(c2cccs2)CC1 [PubChem CID 71786877]
Cryptococcus spores
  phenotypic concentration (concentration showing the germination phenotype in QGA): 80 µM
  germination inhibition phenotype (chemical phenotype) in QGA: asynchrony

## CCCCSc1nc2ccc(C)cc2[nH]1 [PubChem CID 2129690]
Cryptococcus spores
  phenotypic concentration (concentration showing the germination phenotype in QGA): 80 µM
  germination inhibition phenotype (chemical phenotype) in QGA: slow down

## CN(C)CCN(C(=O)c1c[nH]c2ccccc12)c1nc2ccc(OC(F)(F)F)cc2s1.Cl [PubChem CID 71782913]
Cryptococcus spores
  phenotypic concentration (concentration showing the germination phenotype in QGA): 20 µM
  germination inhibition phenotype (chemical phenotype) in QGA: asynchrony

## CCc1ccc2nc(N)sc2c1 [PubChem CID 773093]
Cryptococcus spores
  phenotypic concentration (concentration showing the germination phenotype in QGA): 5 µM
  germination inhibition phenotype (chemical phenotype) in QGA: slow end

## Clc1ccc(OCCSCc2nc3ccccc3[nH]2)cc1 [PubChem CID 1589789]
Cryptococcus spores
  phenotypic concentration (concentration showing the germination phenotype in QGA): 20 µM
  germination inhibition phenotype (chemical phenotype) in QGA: slow down

## O=C(NCc1ccnc(-c2cccs2)c1)c1nc2ccccc2s1 [PubChem CID 91630328]
Cryptococcus spores
  phenotypic concentration (concentration showing the germination phenotype in QGA): 40 µM
  germination inhibition phenotype (chemical phenotype) in QGA: asynchrony

## Cc1ccc(OCCn2c(C)nc3ccccc32)cc1 [PubChem CID 790960]
Cryptococcus spores
  phenotypic concentration (concentration showing the germination phenotype in QGA): 80 µM
  germination inhibition phenotype (chemical phenotype) in QGA: slow down

## Cc1nc(NC(=O)CCc2ccccc2)sc1C [PubChem CID 733834]
Cryptococcus spores
  phenotypic concentration (concentration showing the germination phenotype in QGA): 40 µM
  germination inhibition phenotype (chemical phenotype) in QGA: morphological variability

## Cc1cc(C)c2sc(NN)nc2c1 [PubChem CID 2049855]
Cryptococcus spores
  germination inhibition phenotype (chemical phenotype) in QGA: combination of the “morphological variability” and the “slow end” phenotypes
Cryptococcus spores; listed as G2
  phenotypic concentration (concentration showing the germination phenotype in QGA): 20 µM and 40 µM

## O=C(NC1CCCC1)c1csc(Nc2ccccc2)n1 [PubChem CID 30860168]
Cryptococcus spores
  phenotypic concentration (concentration showing the germination phenotype in QGA): 10 µM
  germination inhibition phenotype (chemical phenotype) in QGA: asynchrony

## NNc1nc2cc3c(cc2s1)OCCO3 [PubChem CID 2771030]
Cryptococcus spores; at 2.5 µM
  germination inhibition phenotype in QGA: bimodal
Cryptococcus spores; at higher concentrations (5 µM)
  germination inhibition phenotype in QGA: combination phenotype of “bimodal” and “slow end”
Cryptococcus spores; listed as G3
  phenotypic concentration (concentration showing the germination phenotype in QGA): 2.5 µM and 5 µM

## COc1ccc(SCCCC(=O)Nc2ncnc3sccc23)cc1 [A8]
Cryptococcus spores
  germination inhibition phenotype (chemical phenotype) in QGA: asynchrony

## C=C(C)[C@H]1Cc2c(ccc3c2O[C@@H]2COc4cc(OC)c(OC)cc4[C@@H]2C3=O)O1 [rotenone, reference compound]
Cryptococcus spores
  phenotypic concentration (concentration showing the germination phenotype in QGA): 10 µM
  germination inhibition phenotype (chemical phenotype) in QGA: asynchrony

## Nc1nc(COc2ccc3ccccc3c2)cs1 [PubChem CID 973573]
Cryptococcus spores
  phenotypic concentration (concentration showing the germination phenotype in QGA): 10 µM
  germination inhibition phenotype (chemical phenotype) in QGA: asynchrony

## CCCCCC[C@H]1C(=O)O[C@H](C)[C@H](NC(=O)c2cccc(NC=O)c2O)C(=O)O[C@@H](C)[C@@H]1OC(=O)CC(C)C [antimycin A, reference compound]
Cryptococcus spores
  phenotypic concentration (concentration showing the germination phenotype in QGA): 2.5 µM
  germination inhibition phenotype (chemical phenotype) in QGA: asynchrony

## Cc1ccccc1OCCSCc1nc2ccccc2[nH]1 [PubChem CID 1589778]
Cryptococcus spores
  phenotypic concentration (concentration showing the germination phenotype in QGA): 80 µM
  germination inhibition phenotype (chemical phenotype) in QGA: slow down

## Cc1cc(C(=O)N(CCc2cccs2)C2CC2)c(C)o1 [compound 71781394]
[1]
  Yeast Inhibition: % Inhibition: 95.6%
[2]
  Cytotoxicity: Relative Cell Viability (% of Negative Control): 103.1 % of Negative Control

## N#Cc1nc2c(nc1C#N)-c1ccccc1C2=O [compound 292929]
[1]
  Yeast Inhibition: % Inhibition: 100.6%
[2]
  Cytotoxicity: Relative Cell Viability (% of Negative Control): 5.9 % of Negative Control

## O=C(CCSc1ccccc1)N1CCC(c2cccs2)CC1 [compound 71786877]
[1]
  Yeast Inhibition: % Inhibition: 10.0%
[2]
  Cytotoxicity: Relative Cell Viability (% of Negative Control): 89.8 % of Negative Control

## CC(C)Cc1nnc(NC(=O)C(Cl)Cl)s1 [compound 697528]
[1]
  Yeast Inhibition: % Inhibition: 71.6%
[2]
  Cytotoxicity: Relative Cell Viability (% of Negative Control): 96.1 % of Negative Control

## CCc1ccccc1NC(=O)c1cc(C)oc1C [compound 8839503]
[1]
  Yeast Inhibition: % Inhibition: 37.3%
[2]
  Cytotoxicity: Relative Cell Viability (% of Negative Control): 103.5 % of Negative Control

## CCCOc1ccc(CSc2nc3ccccc3[nH]2)cc1 [compound 1653621]
[1]
  Yeast Inhibition: % Inhibition: 77.4%
[2]
  Cytotoxicity: Relative Cell Viability (% of Negative Control): 75.1 % of Negative Control

## O=C(/C=C/c1cccc(F)c1)c1cccs1 [compound 7185494]
[1]
  Yeast Inhibition: % Inhibition: 101.7%
[2]
  Cytotoxicity: Relative Cell Viability (% of Negative Control): 45.7 % of Negative Control

## S=C(NCc1ccco1)SCc1cn2ccccc2n1 [compound 3377203]
[1]
  Yeast Inhibition: % Inhibition: 66.6%
[2]
  Cytotoxicity: Relative Cell Viability (% of Negative Control): 86.3 % of Negative Control

## Cc1ccccc1CSc1n[nH]c(=O)c2cc(-c3ccco3)nn12 [compound 27373907]
[1]
  Yeast Inhibition: % Inhibition: 49.7%
[2]
  Cytotoxicity: Relative Cell Viability (% of Negative Control): 97.6 % of Negative Control

## O=C(N=C1C(Cl)=C(Cl)C(=O)c2ccccc21)c1ccc(Cl)cc1 [compound 4111118]
[1]
  Yeast Inhibition: % Inhibition: 100.7%
[2]
  Cytotoxicity: Relative Cell Viability (% of Negative Control): 7.1 % of Negative Control

## O=C(Cn1c(=O)n(Cc2ccncc2)c(=O)c2ncccc21)Nc1ccc(F)c(Cl)c1 [compound 16951979]
[1]
  Yeast Inhibition: % Inhibition: 27.1%
[2]
  Cytotoxicity: Relative Cell Viability (% of Negative Control): 102.8 % of Negative Control

## O=C(Cn1c(=O)n(Cc2cccnc2)c(=O)c2ncccc21)Nc1ccc2c(c1)OCO2 [compound 16951905]
[1]
  Yeast Inhibition: % Inhibition: -5.5%
[2]
  Cytotoxicity: Relative Cell Viability (% of Negative Control): 101.3 % of Negative Control

## Cn1c(=O)c(Nc2ccc(O)cc2)c2c3c(cccc31)C(=O)c1ccccc1-2 [compound 1263311]
[1]
  Yeast Inhibition: % Inhibition: -2.6%
[2]
  Cytotoxicity: Relative Cell Viability (% of Negative Control): 86.6 % of Negative Control

## Cc1cccc(NC(=O)CC2SC(=O)N(c3ccc(F)cc3)C2=O)c1 (stereo not drawn) [compound 16876071]
[1]
  Yeast Inhibition: % Inhibition: 58.1%
[2]
  Cytotoxicity: Relative Cell Viability (% of Negative Control): 86.9 % of Negative Control

Reference: PMC8406298, “Discovery of Fungus-Specific Targets and Inhibitors Using Chemical Phenotyping of Pathogenic Spore Germination” (mBio, 2021)
